Laboratory results published in US20170065566A1, “PHARMACEUTICAL COMBINATIONS COMPRISING ANTIBACTERIAL AGENTS” (WOCKHARDT LIMITED, priority 2014, published 2017).
Counter-ions that a name gives are not always drawn.

Test system: E. coli 7MP strain producing CMY type, SHV, TEM beta-lactamase enzymes
Test: Time kill study (viable bacterial count)
Type: cell-based
Settings: for Effect on bacterial count of E. coli throughout the duration of the study (in words): alone or in combination; for Bacterial count (Log10 CFU/ml) 0 hour / Bacterial count (Log10 CFU/ml) 2 hour / Bacterial count (Log10 CFU/ml) 4 hour / Bacterial count (Log10 CFU/ml) 6 hour / Bacterial count (Log10 CFU/ml) 8 hour: time kill
Description: The synergistic killing effect of the combinations according to invention was studied by performing time kill studies. In a typical time kill study, the freshly grown cultures were diluted to the required cell density (initial starting inoculum) in Cation adjusted Muller Hinton broth medium (BD, USA). The antibacterial agents (either alone or in combination) at the required concentrations were added into the culture-containing medium. The samples were incubated under shaking condition (120 rpm) at 37° C. Enumeration of viable bacterial count was done every 2 hour by diluting in normal saline and plating on to the Tryptic Soya Agar plates (BD, USA). The plates were incubated for 24 hours to arrive at the viable bacterial count. […] In general, the decrease of 1 Log CFU/ml, corresponds to 90% killing of bacteria. Similarly, 2 Log CFU/ml reductions indicates to 99% killing of bacteria and 3 Log CFU/ml reductions is equal to 99.9% killing of bacteria.
The assay without any antibacterial agent was taken as control.

[1] = each active ingredient at 4 mcg/ml

| Compound | Effect on bacterial count of E. coli throughout the duration of the study (in words) [1] | Bacterial count (Log10 CFU/ml) 0 hour [1] [Log10 CFU/ml] | Bacterial count (Log10 CFU/ml) 2 hour [1] [Log10 CFU/ml] | Bacterial count (Log10 CFU/ml) 4 hour [1] [Log10 CFU/ml] | Bacterial count (Log10 CFU/ml) 6 hour [1] [Log10 CFU/ml] | Bacterial count (Log10 CFU/ml) 8 hour [1] [Log10 CFU/ml] | Bacterial count (Log10 CFU/ml) 0 hour (2 mcg/ml) [Log10 CFU/ml] | Bacterial count (Log10 CFU/ml) 2 hour (2 mcg/ml) [Log10 CFU/ml] | Bacterial count (Log10 CFU/ml) 4 hour (2 mcg/ml) [Log10 CFU/ml] | Bacterial count (Log10 CFU/ml) 6 hour (2 mcg/ml) [Log10 CFU/ml] | Bacterial count (Log10 CFU/ml) 8 hour (2 mcg/ml) [Log10 CFU/ml] |
| --- | --- | --- | --- | --- | --- | --- | --- | --- | --- | --- | --- |
| CO/N=C(\C(=O)N[C@@H]1C(=O)N2C(C(=O)[O-])=C(C[N+]3(C)CCCC3)CS[C@H]12)c1csc(N)n1 [Cefepime, cefepime] | not effective in decreasing the bacterial count | 7.51 | 8.47 | 9.19 | 9.20 | 9.30 | – | – | – | – | – |
| C[C@@H](O)[C@H]1C(=O)N2C(C(=O)O)=C(SCCN=CN)C[C@H]12 [Imipenem, imipenem] | – | – | – | – | – | – | 7.51 | 3.95 | 3.60 | 4.81 | 5.90 |
| CO/N=C(\C(=O)N[C@@H]1C(=O)N2C(C(=O)[O-])=C(C[n+]3cccc4c3CCC4)CS[C@H]12)c1csc(N)n1 [Cefpirome, cefpirome] | not effective in decreasing the bacterial count | 7.51 | 8.87 | 9.27 | 9.20 | 9.25 | – | – | – | – | – |
| N#C[C@@H]1CC[C@@H]2CN1C(=O)N2OS(=O)(=O)O [Sodium salt of a compound of Formula (I), sodium salt of sulphuric acid, mono[(1R,2S,5R)-2-cyano-7-oxo-1,6-diazabicyclo[3.2.1]oct-6-yl] ester] | not effective in decreasing the bacterial count | 7.51 | 8.87 | 9.36 | 9.20 | 9.20 | – | – | – | – | – |
